For three compounds, MIC results are on record in patent publication US5084453A, “1-carboxy-1-vinyloxyimino aminothiazole cephalosporin derivatives” (priority 1988, dated 1992).

Assay in all cases: in vitro antibacterial activity, agar plate dilution method
What all share (assay type): cell-based

Test [1] relates to E. cloacae 963. To be noted: Enterobacter cloacae, 963, 16 h. The procedure: (§1) Now, the in vitro antibacterial activities of the compounds of the present invention against various microorganisms, were measured by the following agar plate dilution method.
(§2) One platinum loopfull of each test microorganism incubated overnight in Mueller Hinton broth, was inoculated to Mueller Hinton agar (MH agaer). Such culture media containing various antibiotics in various concentrations were prepared. After incubation at 37° C. for 16 hours, the minimum inhibitory concentrations (MIC μg/ml) were measured.

The test system of test [2] is E. coli GN5482*. To be noted: Escherichia coli. The procedure:
as §1, §2

Test [3] concerns E. coli CSH(RE45)*. To be noted: Escherichia coli; 10^6 CFU/ml; β-Lactamase-producing strain; 37° C., 16 hours; read-out: MIC. The procedure: as §1, §2
Test [4] concerns S. marcescens IAM 1184. Particulars: Serratia marcescens. The procedure:
as §1, §2

Test [5] has as its system Ps. aeruginosa IFO3445. To be noted: Pseudomonas aeruginosa, IFO3445, 16 h. The protocol: as §1, §2
The subject of test [6] is A. calcoaceticus No. 4. Particulars: Acinetobacter calcoaceticus, NO.4; 10^6 CFU/ml; Mueller Hinton agar, 37° C., 16 hours; read-out: MIC. The procedure:
as §1, §2

The test system of test [7] is P. vulgaris No. 33*. To be noted: Proteus vulgaris. The protocol: as §1, §2
For test [8], the system named is K. pneumoniae No. 42*. To be noted: Klebsiella pneumoniae, 16 h. The procedure:
as §1, §2

In test [9] the test system is E. coli CSH2(RK1)*. To be noted: Escherichia coli, 16 h. The protocol: as §1, §2
Test [10] relates to Ps. cepacia 23. The protocol:
as §1, §2

Test [11] has as its system K. pneumoniae PC1-602. Particulars: Klebsiella pneumoniae. The protocol:
as §1, §2

The subject of test [12] is E. cloacae Nek 39*. Particulars: Enterobacter cloacae. The procedure: as §1, §2
Test [13] has as its system E. coli NIHJ JC2. Particulars: Escherichia coli, NIHJJC2; 10^6 CFU/ml; Mueller Hinton agar, 37° C., 16 hours; read-out: MIC. The procedure:
as §1, §2

Test [14] concerns Ps. aeruginosa AK 109. Particulars: Pseudomonas aeruginosa. The protocol: as §1, §2
Test [15] relates to M. morganii GN5407*. Particulars: Morganella morganii. The protocol: as §1, §2
The subject of test [16] is P. vulgaris HX-19. Particulars: Proteus vulgaris. The procedure:
as §1, §2

In test [17] the test system is Ps. aeruginosa AKR17. Particulars: Pseudomonas aeruginosa, AKR17; 10^6 CFU/ml; Mueller Hinton agar, 37° C., 16 hours; read-out: MIC. The protocol:
as §1, §2

The subject of test [18] is S. aureus 209P NIHJ-JC1. To be noted: Staphylococcus aureus, 16 h. The protocol: as §1, §2
Test [19] relates to S. marcescens No. 16-2*. To be noted: Serratia marcescens. The procedure: as §1, §2
Test [20] relates to K. oxytoca GN10650*. To be noted: Klebsiella oxytoca, GN10650, 16 h. The procedure:
as §1, §2

The mark [21] stands for this setting: IAM1184, 10^6 CFU/ml, Mueller Hinton agar, 37° C., 16 hours, read-out: MIC.
The mark [22] stands for this setting: PC1602, 10^6 CFU/ml, Mueller Hinton agar, 37° C., 16 hours, read-out: MIC.
Setting [23] is: 10^6 CFU/ml, β-Lactamase-producing strain, 37° C., 16 hours, read-out: MIC.
The mark [24] stands for this setting: AK109, 10^6 CFU/ml, Mueller Hinton agar, 37° C., 16 hours, read-out: MIC.
The mark [25] stands for this setting: HX19, 10^6 CFU/ml, Mueller Hinton agar, 37° C., 16 hours, read-out: MIC.

Values after ≈ are worked out from the molar mass of the structure shown. Like-named read-outs stand apart in the source and are kept apart here.

Usually MIC stands for the least concentration at which growth counts as inhibited. For the compound `C=C(O/N=C(\C(=O)N[C@@H]1C(=O)N2C(C(=O)[O-])=C(C[n+]3cccc4c3CCC4)CS[C@H]12)c1csc(N)n1)C(=O)O` [Example 2, 7β-[2-(2-aminothiazol-4-yl)-2-(1-carboxy-1-vinyloxyimino)acetamido]-3-(2,3-cychlopenteno-pyridinio)methyl-3-cephem-4-carboxylate (syn-isomer)], the minimal inhibitory concentration (MIC) was 0.05 µg/mL (≈ 0.0876 µM) in test [1]; 0.1 µg/mL (≈ 0.175 µM) in test [2] (GN5482, 16 h); 0.78 µg/mL (≈ 1.37 µM) in [3]; 0.0125 µg/mL (≈ 0.0219 µM) in test [4] (setting [21]); 1.56 µg/mL (≈ 2.73 µM) in test [5]; 3.12 µg/mL (≈ 5.47 µM) in [6]. The minimal inhibitory concentration (MIC) is 0.025 µg/mL (≈ 0.0438 µM) in test [7] (16 h); 0.39 µg/mL (≈ 0.683 µM) in test [8]; 0.025 µg/mL (≈ 0.0438 µM) in test [9]; 0.39 µg/mL (≈ 0.683 µM) in [10] (Burkholderia cepacia, 23, 16 h); 0.0125 µg/mL (≈ 0.0219 µM) in test [11] (setting [22]); 0.2 µg/mL (≈ 0.351 µM) in test [12] (16 h). The minimal inhibitory concentration (MIC) in test [13] worked out at 0.05 µg/mL (≈ 0.0876 µM); in [14] (AK109, 16 h) it was 1.56 µg/mL (≈ 2.73 µM); in [15] (GN5407, 16 h), 0.025 µg/mL (≈ 0.0438 µM); in test [16] (HX19, 16 h), 0.025 µg/mL (≈ 0.0438 µM); in test [17] it was 100 µg/mL (≈ 175 µM); in [18], 1.56 µg/mL (≈ 2.73 µM). Moreover, the values for the MIC in test [19] (16 h) and in [20] were 0.78 µg/mL (≈ 1.37 µM) and 0.1 µg/mL (≈ 0.175 µM), respectively.

For the compound `C=C(O/N=C(\C(=O)N[C@@H]1C(=O)N2C(C(=O)[O-])=C(C[n+]3cccc(C(=O)O)c3)CS[C@H]12)c1csc(N)n1)C(=O)O` [Example 3, 7β-[2-(2-aminothiazol-4-yl)-2-(1-carboxy-1-vinyloxyimino)acetamido]-3-(3-carboxy-1-pyridinio)methyl-3-cephem-4-carboxylate (syn-isomer)], the minimum inhibitory concentration (MIC) in [1] is 0.1 µg/mL (≈ 0.174 µM); in [2] (GN5482, 10^6 CFU/ml, β-Lactamase-producing strain, 37° C., 16 hours, read-out: MIC) it was 3.12 µg/mL (≈ 5.43 µM); in [3], 0.05 µg/mL (≈ 0.087 µM); in test [4] (IAM1184, 16 h) it was 0.05 µg/mL (≈ 0.087 µM); in test [5], 6.25 µg/mL (≈ 10.9 µM); in [6], 25 µg/mL (≈ 43.5 µM). Moreover, the MIC in [7] (16 h) stood at 0.05 µg/mL (≈ 0.087 µM); in test [8], 0.39 µg/mL (≈ 0.679 µM); in test [9], 0.05 µg/mL (≈ 0.087 µM); in [10] (Burkholderia cepacia, 23, 16 h), 6.25 µg/mL (≈ 10.9 µM); in test [11] (PC1602, 16 h) it was 0.025 µg/mL (≈ 0.0435 µM); in test [12] (setting [23]), 3.12 µg/mL (≈ 5.43 µM). The MIC is 0.2 µg/mL (≈ 0.348 µM) in [13]; 100 µg/mL (≈ 174 µM) in [14] (setting [24]); 0.05 µg/mL (≈ 0.087 µM) in [15] (GN5407, 16 h); 0.0125 µg/mL (≈ 0.0218 µM) in test [16] (setting [25]); greater than 100 µg/mL in test [17]; 6.25 µg/mL (≈ 10.9 µM) in test [18]. Besides, the values for the minimum inhibitory concentration (MIC) in test [19] (setting [23]) and in test [20] were 3.12 µg/mL (≈ 5.43 µM) and 0.2 µg/mL (≈ 0.348 µM), respectively.

As to `C=C(O/N=C(\C(=O)N[C@@H]1C(=O)N2C(C(=O)[O-])=C(C[n+]3cccc(C(N)=O)c3)CS[C@H]12)c1csc(N)n1)C(=O)O` [Example 4, 7β-[2-(2-aminothiazol-4-yl)-2-(1-carboxy-1-vinyloxyimino)acetamido] vinyloxyimino)acetamido]-3-(3-carbamoyl-1-pyridinio)methyl-3-cephem-4-carboxylate (syn-isomer)], the minimal inhibitory concentration (MIC) in [1] was 0.05 µg/mL (≈ 0.0872 µM); in test [2] (GN5482, 16 h) it was 0.2 µg/mL (≈ 0.349 µM); in test [3], 0.025 µg/mL (≈ 0.0436 µM); in test [4] (setting [21]), 0.0125 µg/mL (≈ 0.0218 µM); in [5], 1.56 µg/mL (≈ 2.72 µM); in [6] it was 3.12 µg/mL (≈ 5.44 µM). Further, the MIC in [7] (setting [23]) stood at 0.0125 µg/mL (≈ 0.0218 µM); in test [8], 0.1 µg/mL (≈ 0.174 µM); in [9] it was 0.025 µg/mL (≈ 0.0436 µM); in test [10] (Burkholderia cepacia, 23, 10^6 CFU/ml, Mueller Hinton agar, 37° C., 16 hours, read-out: MIC) it was 3.12 µg/mL (≈ 5.44 µM); in test [11] (setting [22]), 0.0125 µg/mL (≈ 0.0218 µM); in test [12] (16 h), 0.2 µg/mL (≈ 0.349 µM). The MIC was 0.05 µg/mL (≈ 0.0872 µM) in test [13]; 12.5 µg/mL (≈ 21.8 µM) in test [14] (setting [24]); 0.0125 µg/mL (≈ 0.0218 µM) in test [15] (GN5407, 10^6 CFU/ml, β-Lactamase-producing strain, 37° C., 16 hours, read-out: MIC); 0.0125 µg/mL (≈ 0.0218 µM) in test [16] (setting [25]); greater than 100 µg/mL in [17]; 1.56 µg/mL (≈ 2.72 µM) in [18]. Moreover, the minimum inhibitory concentration (MIC) stood at 0.78 µg/mL (≈ 1.36 µM) in test [19] (16 h) and 0.1 µg/mL (≈ 0.174 µM) in test [20].
